Measurements from US20120034193A1, “TREATMENT OF NEUROTROPHIC FACTOR MEDIATED DISORDERS” (priority 2009, published 2012).

How the values were obtained:
Experiment in all cases: Binding assay
Conditions in all cases: smilagenin 1 μM
Bombesin BB2 = Bombesin BB2 (Homo sapiens, UniProt P30550)
Description: (§1) The receptor binding was investigated using the following method: Sarsasapogenin was incubated with tissue or cell homogenate that expressed the receptor of interest and a known concentration a radiolabelled compound with affinity for the receptor of interest. After the incubation period the non-bound radiolabelled compound was removed and the amount of specific binding was quantified. The amount of specific binding in the presence and absence of sarsasapogenin were compared and the percent inhibition of the binding of the radiolabelled compound by sarsasapogenin was calculated. The source of the receptor, the incubation conditions, the radiolabelled compound used varied depending on each specific assay.
(§2) Using the same methods as described above, the binding of smilagenin (1 μM) to the receptors listed in Table 2 below, and the effect of smilagenin on the activity of the enzymes listed in Table 2 below, were investigated.

Bradykinin B2 = Bradykinin B2 (Homo sapiens, UniProt P30411)
Description: as §1, §2

Orphanin ORL1 = Orphanin ORL1 (Homo sapiens, UniProt P41146)
Description: as §1, §2

Adrenergic α1D = Adrenergic α1D (Homo sapiens, UniProt P25100)
Description: as §1, §2

Muscarinic M3 = target: T1, Muscarinic M3 (Homo sapiens, UniProt P20309)
T1 construct: host or cells: tissue or cell homogenate, not specified
Description: as §1, §2

Anaphylatoxin C5a = Anaphylatoxin C5a (Homo sapiens, UniProt P21730)
Description: as §1, §2

Adrenergic β3 = Adrenergic β3 (Homo sapiens, UniProt P13945)
Description: as §1, §2

Somatostatin sst4 = Somatostatin sst4 (Homo sapiens, UniProt P31391)
Description: as §1, §2

Oestrogen (Erβ) = target: T2, Oestrogen (Erβ) (Homo sapiens, UniProt Q92731)
T2 construct: host or cells: tissue or cell homogenate (not specified)
Description: as §1, §2

Dopamine D3 = Dopamine D3 (Homo sapiens, UniProt P35462)
Description: as §1, §2

Sigma σ2 = Sigma σ2 (Rattus norvegicus, UniProt Q5U3Y7)
Description: as §1, §2

Erythropoietin EPOR = target: T3, Erythropoietin EPOR (Homo sapiens, UniProt P19235)
T3 construct: host or cells: tissue or cell homogenate (not specified)
Description: as §1, §2

Melanocortin MC5 = Melanocortin MC5 (Homo sapiens, UniProt P33032)
Description: as §1, §2

Chemokine CCR1 = Chemokine CCR1 (Homo sapiens, UniProt P32246)
Description: as §1, §2

Leptin = Leptin (Mus musculus, UniProt P48356)
Description: as §1, §2

Endothelin ETB = Endothelin ETB (Homo sapiens, UniProt P24530)
Description: as §1, §2

[1] = target: 5-Hydroxytryptamine, 5-HT2C (Homo sapiens, UniProt P28335)
Description: as §1, §2

Tachykinin NK1 = Tachykinin NK1 (Homo sapiens, UniProt P25103)
Description: as §1, §2

Calcium Channel N-Type = Calcium Channel N-Type (Rattus norvegicus, UniProt Q02294)
Description: as §1, §2

[2] = target: Platelet Activating Factor (PAF) (Homo sapiens, UniProt P25105)
Description: as §1, §2

Cannabinoid CB1 = Cannabinoid CB1 (Homo sapiens, UniProt P21554)
Description: as §1, §2

Endothelin ETA = Endothelin ETA (Homo sapiens, UniProt P25101)
Description: as §1, §2

Adrenergic β1 = Adrenergic β1 (Homo sapiens, UniProt P08588)
Description: as §1, §2

Prostanoid EP4 = Prostanoid EP4 (Homo sapiens, UniProt P35408)
Description: as §1, §2

Vasopressin V1B = target: T4, Vasopressin V1B (Homo sapiens, UniProt P47901)
T4 construct: host or cells: tissue or cell homogenate, not specified
Description: as §1, §2

[3] = target: T5, Epidermal Growth Factor (EGF) (Homo sapiens, UniProt P00533)
T5 construct: host or cells: tissue or cell homogenate (not specified)
Description: as §1, §2

Dopamine D4.2 = Dopamine D4.2 (Homo sapiens, UniProt P21917, DEL265-296)
Description: as §1, §2

Sigma σ1 = Sigma σ1 (Homo sapiens, UniProt Q99720)
Description: as §1, §2

[4] = target: T6, G Protein-Coupled Receptor GPR 103 (Homo sapiens, UniProt Q96P65)
T6 construct: host or cells: tissue or cell homogenate (not specified)
Description: as §1, §2

Adensonine A3 = Adensonine A3 (Homo sapiens, UniProt P0DMS8)
Description: as §1, §2

Somatostatin sst2 = Somatostatin sst2 (Homo sapiens, UniProt P30874)
Description: as §1, §2

[5] = target: T7, Growth Hormone Secretagogue (GHS, Ghrelin) (Homo sapiens, UniProt Q92847)
T7 construct: host or cells: tissue or cell homogenate (not specified)
Description: as §1, §2

Cannabinoid CB2 = Cannabinoid CB2 (Homo sapiens, UniProt P34972)
Description: as §1, §2

Tachykinin NK3 = Tachykinin NK3 (Homo sapiens, UniProt P29371)
Description: as §1, §2

[6] = target: Prostanoid Thromboxane A2 (TP) (Homo sapiens, UniProt P21731)
Description: as §1, §2

Adrenergic α1B = Adrenergic α1B (Rattus norvegicus, UniProt P15823)
Description: as §1, §2

T7 sequence (Q92847 whole entry): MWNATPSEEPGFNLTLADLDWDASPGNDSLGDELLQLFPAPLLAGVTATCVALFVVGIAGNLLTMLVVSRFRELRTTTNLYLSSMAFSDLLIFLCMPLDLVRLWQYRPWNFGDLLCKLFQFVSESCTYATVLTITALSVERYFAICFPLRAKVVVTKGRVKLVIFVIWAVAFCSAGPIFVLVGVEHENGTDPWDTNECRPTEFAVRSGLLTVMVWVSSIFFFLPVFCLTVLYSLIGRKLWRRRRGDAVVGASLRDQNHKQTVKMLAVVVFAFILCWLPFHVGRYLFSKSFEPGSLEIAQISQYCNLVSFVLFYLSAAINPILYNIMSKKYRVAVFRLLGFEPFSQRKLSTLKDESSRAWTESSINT
Cannabinoid CB2, sequence (P34972 whole entry): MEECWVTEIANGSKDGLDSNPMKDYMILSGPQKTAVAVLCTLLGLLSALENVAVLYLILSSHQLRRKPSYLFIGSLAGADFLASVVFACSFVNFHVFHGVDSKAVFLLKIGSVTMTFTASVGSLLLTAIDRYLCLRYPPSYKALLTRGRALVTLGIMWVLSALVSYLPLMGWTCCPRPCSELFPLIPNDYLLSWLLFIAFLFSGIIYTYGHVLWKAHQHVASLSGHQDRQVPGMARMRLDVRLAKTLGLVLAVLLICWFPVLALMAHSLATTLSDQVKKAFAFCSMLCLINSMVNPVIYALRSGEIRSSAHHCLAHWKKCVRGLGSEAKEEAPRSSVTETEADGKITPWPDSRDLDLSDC
T6 sequence (Q96P65 whole entry): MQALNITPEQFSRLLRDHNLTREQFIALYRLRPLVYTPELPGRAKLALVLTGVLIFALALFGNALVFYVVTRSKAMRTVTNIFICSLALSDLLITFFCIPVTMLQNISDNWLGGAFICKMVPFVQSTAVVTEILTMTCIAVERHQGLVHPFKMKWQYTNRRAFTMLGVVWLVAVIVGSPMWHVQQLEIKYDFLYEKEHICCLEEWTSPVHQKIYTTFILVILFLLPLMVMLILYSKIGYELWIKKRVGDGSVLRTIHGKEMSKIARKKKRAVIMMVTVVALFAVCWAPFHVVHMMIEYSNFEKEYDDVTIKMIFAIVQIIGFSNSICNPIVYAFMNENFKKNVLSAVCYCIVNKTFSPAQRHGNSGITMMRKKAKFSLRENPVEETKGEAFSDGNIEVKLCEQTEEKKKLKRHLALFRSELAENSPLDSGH
Calcium Channel N-Type, sequence (Q02294 whole entry): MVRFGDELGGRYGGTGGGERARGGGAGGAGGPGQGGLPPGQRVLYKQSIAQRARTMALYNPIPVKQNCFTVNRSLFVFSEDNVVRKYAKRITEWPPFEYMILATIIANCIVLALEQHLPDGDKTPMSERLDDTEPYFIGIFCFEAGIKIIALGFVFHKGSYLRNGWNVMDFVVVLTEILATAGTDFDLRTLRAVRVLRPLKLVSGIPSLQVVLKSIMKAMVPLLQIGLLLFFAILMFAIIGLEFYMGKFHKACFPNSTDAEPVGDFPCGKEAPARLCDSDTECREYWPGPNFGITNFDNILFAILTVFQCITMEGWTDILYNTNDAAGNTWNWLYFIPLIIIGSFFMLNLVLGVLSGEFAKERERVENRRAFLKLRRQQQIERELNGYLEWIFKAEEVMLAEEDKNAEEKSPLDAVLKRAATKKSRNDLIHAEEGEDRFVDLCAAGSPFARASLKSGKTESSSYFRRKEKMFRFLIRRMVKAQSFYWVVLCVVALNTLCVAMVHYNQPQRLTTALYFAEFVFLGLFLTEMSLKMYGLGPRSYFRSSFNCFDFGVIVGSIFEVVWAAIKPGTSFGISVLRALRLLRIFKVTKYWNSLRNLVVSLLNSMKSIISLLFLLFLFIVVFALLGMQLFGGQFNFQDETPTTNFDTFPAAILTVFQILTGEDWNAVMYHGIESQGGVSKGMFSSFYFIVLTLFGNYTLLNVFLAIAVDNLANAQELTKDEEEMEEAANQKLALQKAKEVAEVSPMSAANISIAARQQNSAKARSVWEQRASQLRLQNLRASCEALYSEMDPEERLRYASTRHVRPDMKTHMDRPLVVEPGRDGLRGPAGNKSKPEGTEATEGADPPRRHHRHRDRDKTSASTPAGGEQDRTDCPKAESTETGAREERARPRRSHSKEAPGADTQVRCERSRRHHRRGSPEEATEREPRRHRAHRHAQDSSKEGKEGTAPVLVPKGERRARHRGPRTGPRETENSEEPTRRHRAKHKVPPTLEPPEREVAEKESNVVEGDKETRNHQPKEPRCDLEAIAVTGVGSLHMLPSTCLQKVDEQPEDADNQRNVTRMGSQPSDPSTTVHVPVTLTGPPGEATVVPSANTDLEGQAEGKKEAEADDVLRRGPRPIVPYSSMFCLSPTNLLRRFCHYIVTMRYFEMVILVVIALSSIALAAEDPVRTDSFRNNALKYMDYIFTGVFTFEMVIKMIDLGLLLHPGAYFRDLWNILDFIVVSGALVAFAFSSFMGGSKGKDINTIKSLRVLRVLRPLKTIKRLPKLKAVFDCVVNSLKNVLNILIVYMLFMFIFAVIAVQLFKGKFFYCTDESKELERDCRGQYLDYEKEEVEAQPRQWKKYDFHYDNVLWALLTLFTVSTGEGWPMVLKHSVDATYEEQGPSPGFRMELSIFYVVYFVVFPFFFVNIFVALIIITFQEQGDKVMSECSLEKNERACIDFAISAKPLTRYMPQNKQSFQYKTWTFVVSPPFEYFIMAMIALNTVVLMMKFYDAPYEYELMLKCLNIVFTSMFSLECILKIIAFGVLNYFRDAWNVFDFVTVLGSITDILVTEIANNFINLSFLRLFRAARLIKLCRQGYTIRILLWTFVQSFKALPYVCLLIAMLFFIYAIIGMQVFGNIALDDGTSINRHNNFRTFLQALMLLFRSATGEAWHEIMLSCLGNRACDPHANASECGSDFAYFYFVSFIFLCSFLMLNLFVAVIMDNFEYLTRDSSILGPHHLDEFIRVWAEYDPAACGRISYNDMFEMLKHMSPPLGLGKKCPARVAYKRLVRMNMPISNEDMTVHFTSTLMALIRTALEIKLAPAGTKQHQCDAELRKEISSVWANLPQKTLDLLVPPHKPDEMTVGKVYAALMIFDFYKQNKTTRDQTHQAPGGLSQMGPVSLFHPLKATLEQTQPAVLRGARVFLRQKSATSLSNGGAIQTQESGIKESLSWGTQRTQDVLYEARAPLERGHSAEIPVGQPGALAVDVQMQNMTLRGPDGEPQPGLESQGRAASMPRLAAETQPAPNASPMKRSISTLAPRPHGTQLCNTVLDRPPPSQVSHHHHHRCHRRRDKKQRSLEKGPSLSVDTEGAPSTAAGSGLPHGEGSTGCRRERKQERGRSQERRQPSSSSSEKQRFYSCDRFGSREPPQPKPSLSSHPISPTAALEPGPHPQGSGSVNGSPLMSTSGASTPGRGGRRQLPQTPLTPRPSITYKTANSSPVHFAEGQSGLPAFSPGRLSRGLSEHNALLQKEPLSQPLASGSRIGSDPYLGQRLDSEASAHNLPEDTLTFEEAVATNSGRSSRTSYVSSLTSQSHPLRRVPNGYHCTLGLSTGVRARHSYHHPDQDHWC
Calcium Channel N-Type, sequence (P54290 25-944 partner limits assumed): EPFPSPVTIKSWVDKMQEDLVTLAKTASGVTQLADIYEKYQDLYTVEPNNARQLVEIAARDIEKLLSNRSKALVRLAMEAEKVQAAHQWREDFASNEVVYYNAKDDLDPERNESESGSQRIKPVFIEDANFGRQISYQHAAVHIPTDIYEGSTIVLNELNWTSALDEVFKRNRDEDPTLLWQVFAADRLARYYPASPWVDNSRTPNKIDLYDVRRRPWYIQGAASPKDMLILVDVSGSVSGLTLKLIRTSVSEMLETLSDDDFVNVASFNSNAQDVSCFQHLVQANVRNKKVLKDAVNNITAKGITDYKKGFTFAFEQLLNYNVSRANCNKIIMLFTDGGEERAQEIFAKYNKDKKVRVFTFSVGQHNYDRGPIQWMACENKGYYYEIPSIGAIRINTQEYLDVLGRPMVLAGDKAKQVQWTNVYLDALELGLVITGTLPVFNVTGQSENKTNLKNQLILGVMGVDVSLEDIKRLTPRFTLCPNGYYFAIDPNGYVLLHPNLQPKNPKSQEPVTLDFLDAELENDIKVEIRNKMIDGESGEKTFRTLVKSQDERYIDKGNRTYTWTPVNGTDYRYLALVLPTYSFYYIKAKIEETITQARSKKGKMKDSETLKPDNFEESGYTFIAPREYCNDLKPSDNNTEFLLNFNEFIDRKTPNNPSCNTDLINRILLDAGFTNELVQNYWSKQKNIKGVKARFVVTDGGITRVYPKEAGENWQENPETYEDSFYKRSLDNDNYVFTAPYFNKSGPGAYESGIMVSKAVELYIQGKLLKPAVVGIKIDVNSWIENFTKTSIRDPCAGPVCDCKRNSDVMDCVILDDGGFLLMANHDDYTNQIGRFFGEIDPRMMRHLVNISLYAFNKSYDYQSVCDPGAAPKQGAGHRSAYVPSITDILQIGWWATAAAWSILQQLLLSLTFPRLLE
Calcium Channel N-Type, sequence (P54290 945-1091 partner limits assumed): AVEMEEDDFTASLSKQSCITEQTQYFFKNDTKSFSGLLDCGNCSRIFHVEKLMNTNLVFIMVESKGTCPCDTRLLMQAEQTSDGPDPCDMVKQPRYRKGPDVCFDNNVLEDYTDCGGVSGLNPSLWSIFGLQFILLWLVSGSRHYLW
Calcium Channel N-Type, sequence (P54287 whole entry partner): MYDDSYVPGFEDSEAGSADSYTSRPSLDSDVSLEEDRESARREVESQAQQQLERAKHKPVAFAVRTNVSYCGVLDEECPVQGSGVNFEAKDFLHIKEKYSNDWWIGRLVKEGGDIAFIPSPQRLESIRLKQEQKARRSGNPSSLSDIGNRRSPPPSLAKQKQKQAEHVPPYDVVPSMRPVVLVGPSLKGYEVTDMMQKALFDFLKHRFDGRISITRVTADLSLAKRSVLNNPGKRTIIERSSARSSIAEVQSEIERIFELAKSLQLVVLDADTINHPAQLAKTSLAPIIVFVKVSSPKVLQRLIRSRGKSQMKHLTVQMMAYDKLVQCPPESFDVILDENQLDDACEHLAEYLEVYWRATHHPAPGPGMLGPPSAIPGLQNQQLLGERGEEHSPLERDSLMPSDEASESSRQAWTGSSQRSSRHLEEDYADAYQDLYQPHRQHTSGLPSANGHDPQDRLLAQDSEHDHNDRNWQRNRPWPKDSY

In the case of C[C@@H]1CC[C@@]2(OC1)O[C@H]1C[C@H]3[C@@H]4CC[C@@H]5C[C@@H](O)CC[C@]5(C)[C@H]4CC[C@]3(C)[C@H]1[C@@H]2C [Smilagenin, smilagenin], the “Effect (%)” value (Bombesin BB2) is reported as “NS (NS = No significant response. Significance was taken as ≧30% stimulation or inhibition)”, the “Effect (%)” value (Bradykinin B2) is reported as “NS (NS = No significant response. Significance was taken as ≧30% stimulation or inhibition)” and the “Effect (%)” value (Orphanin ORL1) is reported as “NS (NS = No significant response. Significance was taken as ≧30% stimulation or inhibition)”. The “Effect (%)” value (Adrenergic α1D) was “NS (NS = No significant response. Significance was taken as ≧30% stimulation or inhibition)”, the “Effect (%)” value (Muscarinic M3) was “NS (NS = No significant response. Significance was taken as ≧30% stimulation or inhibition)” and the “Effect (%)” value (Anaphylatoxin C5a) was “NS (NS = No significant response. Significance was taken as ≧30% stimulation or inhibition)”. The “Effect (%)” value (Adrenergic β3) was “NS (NS = No significant response. Significance was taken as ≧30% stimulation or inhibition)”, the “Effect (%)” value (Somatostatin sst4) was “NS (NS = No significant response. Significance was taken as ≧30% stimulation or inhibition)” and the “Effect (%)” value (Oestrogen (Erβ)) was “NS (NS = No significant response. Significance was taken as ≧30% stimulation or inhibition)”. The “Effect (%)” value (Dopamine D3) was “NS (NS = No significant response. Significance was taken as ≧30% stimulation or inhibition)”, the “Effect (%)” value (Sigma σ2) was “NS (NS = No significant response. Significance was taken as ≧30% stimulation or inhibition)” and the “Effect (%)” value (Erythropoietin EPOR) was “NS (NS = No significant response. Significance was taken as ≧30% stimulation or inhibition)”. The “Effect (%)” value (Melanocortin MC5) was “NS (NS = No significant response. Significance was taken as ≧30% stimulation or inhibition)”, the “Effect (%)” value (Chemokine CCR1) was “NS (NS = No significant response. Significance was taken as ≧30% stimulation or inhibition)” and the “Effect (%)” value (Leptin) was “NS (NS = No significant response. Significance was taken as ≧30% stimulation or inhibition)”. For the same molecule, the “Effect (%)” value (Endothelin ETB) was “NS (NS = No significant response. Significance was taken as ≧30% stimulation or inhibition)”, the “Effect (%)” value [1] was “NS (NS = No significant response. Significance was taken as ≧30% stimulation or inhibition)” and the “Effect (%)” value (Tachykinin NK1) was “NS (NS = No significant response. Significance was taken as ≧30% stimulation or inhibition)”. The “Effect (%)” value (Calcium Channel N-Type) was “NS (NS = No significant response. Significance was taken as ≧30% stimulation or inhibition)”, the “Effect (%)” value [2] was “NS (NS = No significant response. Significance was taken as ≧30% stimulation or inhibition)” and the “Effect (%)” value (Cannabinoid CB1) was “NS (NS = No significant response. Significance was taken as ≧30% stimulation or inhibition)”. The “Effect (%)” value (Endothelin ETA) was “NS (NS = No significant response. Significance was taken as ≧30% stimulation or inhibition)”, the “Effect (%)” value (Adrenergic β1) was “NS (NS = No significant response. Significance was taken as ≧30% stimulation or inhibition)” and the “Effect (%)” value (Prostanoid EP4) was “NS (NS = No significant response. Significance was taken as ≧30% stimulation or inhibition)”. The “Effect (%)” value (Vasopressin V1B) was “NS (NS = No significant response. Significance was taken as ≧30% stimulation or inhibition)”, the “Effect (%)” value [3] was “NS (NS = No significant response. Significance was taken as ≧30% stimulation or inhibition)” and the “Effect (%)” value (Dopamine D4.2) was “NS (NS = No significant response. Significance was taken as ≧30% stimulation or inhibition)”. For the same molecule, the “Effect (%)” value (Sigma σ1) was “NS (NS = No significant response. Significance was taken as ≧30% stimulation or inhibition)”, the “Effect (%)” value [4] was “NS (NS = No significant response. Significance was taken as ≧30% stimulation or inhibition)” and the “Effect (%)” value (Adensonine A3) was “NS (NS = No significant response. Significance was taken as ≧30% stimulation or inhibition)”. The “Effect (%)” value (Somatostatin sst2) was “NS (NS = No significant response. Significance was taken as ≧30% stimulation or inhibition)”, the “Effect (%)” value [5] was “NS (NS = No significant response. Significance was taken as ≧30% stimulation or inhibition)” and the “Effect (%)” value (Cannabinoid CB2) was “NS (NS = No significant response. Significance was taken as ≧30% stimulation or inhibition)”. For the same molecule, the “Effect (%)” value (Tachykinin NK3) was “NS (NS = No significant response. Significance was taken as ≧30% stimulation or inhibition)”, the “Effect (%)” value [6] was “NS (NS = No significant response. Significance was taken as ≧30% stimulation or inhibition)” and the “Effect (%)” value (Adrenergic α1B) was “NS (NS = No significant response. Significance was taken as ≧30% stimulation or inhibition)”.
